Reference: US8445409B2, “Use of 5-benzyloxymethyl-1,2-isoxazoline derivatives as a herbicide” (Moghu Research Center Ltd., priority 2007, dated 2013)
“Also recorded” adds a separate entry of the source.

Tests used:
Wheat = assay: Upland pot test, pre-/post-emergence spray, visual rating; assay type: in vivo, wheat (TRIAZ); details: for Visual measurement: Crops, Wheat: 2 weeks after spray, 0-10 scale (10=completely killed)
Excerpt: (§1) To a rectangular plastic pot having a surface area of 300 cm^2, mixed soils including blend bed soil (Boonong, Horticultural Bed Soil No. 3) and sandy loam soil were filled (mixing ratio, 1:1). Seeds of the eight different types of weeds including gramineous weed such as barnyardgrass, large crabgrass, green foxtail, fall panicum, and broadleaf weed such as common cocklebur, velvetleaf, Indian joint-vetch, and morningglory were sown. To the other pot containing the same soil mixture, seeds of the five different types of crops including corn, soybean, cotton, wheat and rice were sown. Pots were kept in a greenhouse of which temperature was maintained at 25˜30° C. (day) or 15˜25° C. (night), and regularly watered.
(§2) After fourteen days and when the crops and the weeds reached their three-leaf stage, the other set of a crop pot and a weed pot were prepared by the same method as described above. Then, “test substance” was sprayed thereto. In this case, spray treatment to the plants after they have grown for two weeks corresponded to post-emergence treatment while spray treatment to the seeds right after the sowing corresponded to pre-emergence treatment. Spray was carried out by using a track sprayer (R&D Sprayer, USA) equipped with a Teejet 8002 nozzle (Spraying Systems Co., USA). Spray volume was adjusted to 300 L/ha. The spray solution was prepared by dissolving the “test substance” in acetone and adding the same volume of 0.2% (v/v) Tween 20 aqueous solution. Dosage of the test substance was 500, 250, 125, 62.5 or 31.3 g/ha. Two weeks after the spray of the test substance, efficacy and phytotoxic effect to the crops and the weeds were visually measured based on a 0 to 10 scale (0: no efficacy, 10: completely killed).

[1] = tested on: crops such as corn, rice, wheat, soybean and cotton; assay: Upland pot test, crops as a group; assay type: in vivo; details: pre-emergence, 500 g/ha
Excerpt: as §1
After fourteen days and when the crops and the weeds reached their three-leaf stage, the other set of a crop pot and a weed pot were prepared by the same method as described above. Then, “test substance” was sprayed thereto. In this case, spray treatment to the plants after they have grown for two weeks corresponded to post-emergence treatment while spray treatment to the seeds right after the sowing corresponded to pre-emergence treatment. […] Two weeks after the spray of the test substance, efficacy and phytotoxic effect to the crops and the weeds were visually measured based on a 0 to 10 scale (0: no efficacy, 10: completely killed).

Cotton = assay: Upland pot test, pre-/post-emergence spray, visual rating; assay type: in vivo, cotton (GOSHI); details: for Visual measurement: Crops, Cotton: 2 weeks after spray, 0-10 scale (10=completely killed)
Excerpt: as §1, §2

[2] = tested on: broadleaf weeds such as common cocklebur, Indian joint-vetch, velvetleaf, morningglory; assay: Upland pot test, broadleaf weeds as a group; assay type: in vivo
Excerpt: as §1, §2

Fall panicum = assay: Upland pot test, pre-/post-emergence spray, visual rating; assay type: in vivo, fall panicum (PANDI); details: 2 weeks after spray, 0-10 scale (10=completely killed)
Excerpt: as §1, §2

Soybean = assay: as above; assay type: in vivo, soybean (GLYMX); details: for Visual measurement: Crops, Soybean: 2 weeks after spray, 0-10 scale (10=completely killed)
Excerpt: as §1, §2

Corn = assay: as above; assay type: in vivo, corn (ZEAMX); details: for Visual measurement: Crops, Corn: 2 weeks after spray, 0-10 scale (10=completely killed)
Excerpt: as §1, §2

Foxtail = assay: as above; assay type: in vivo, green foxtail (SETVI); details: 2 weeks after spray, 0-10 scale (10=completely killed)
Excerpt: as §1, §2

Barnyardgrass = assay: as above; assay type: in vivo, barnyardgrass (ECHCG); details: 2 weeks after spray, 0-10 scale (10=completely killed)
Excerpt: as §1, §2

Rice = assay: as above; assay type: in vivo, rice (ORYSA); details: for Visual measurement: Crops, Rice: 2 weeks after spray, 0-10 scale (10=completely killed)
Excerpt: as §1, §2

Indian joint-vetch = assay: as above; assay type: in vivo, Indian joint-vetch (AESIN); details: 2 weeks after spray, 0-10 scale (10=completely killed)
Excerpt: as §1, §2

Large crabgrass = assay: Herbicidal activity at different growth stages, fresh weight suppression; assay type: in vivo; details: .12 kg/ha, fresh weight two weeks after treatment
[3] = post-emergence foliar spray at three leaf stage, 31.2 g/ha
[4] = post-emergence foliar spray at three leaf stage, 62.5 g/ha
[5] = post-emergence foliar spray at three leaf stage, 125 g/ha
[6] = post-emergence foliar spray at three leaf stage, 250 g/ha
[7] = post-emergence foliar spray at three leaf stage, 500 g/ha
[8] = pre-emergence soil treatment, 31.2 g/ha
[9] = pre-emergence soil treatment, 62.5 g/ha
[10] = pre-emergence soil treatment, 125 g/ha
[11] = pre-emergence soil treatment, 250 g/ha
[12] = pre-emergence soil treatment, 500 g/ha

For `Cc1ccsc1C1=NOC(C)(COCc2c(F)cccc2F)C1` (stereo not drawn) [test substance, 5-(2,6-difluorobenzyl)oxymethyl-5-methyl-3-(4-methylthiophen-5-yl)-1,2-isoxazoline], the “Visual measurement: Crops, Wheat” value (Wheat; [3]) was 0, the “Visual measurement: Crops, Wheat” value (Wheat; [4]) was 0 and the “Visual measurement: Crops, Wheat” value (Wheat; [5]) was 0. For the same compound, the “Visual measurement: Crops, Wheat” value (Wheat; [6]) was 0, the “Visual measurement: Crops, Wheat” value (Wheat; [7]) was 0 and the “Safety to wheat (in words)” value (Wheat; post-emergence treatment) was “safe”. For the same compound, the “Visual measurement: Crops, Wheat” value (Wheat; [8]) was 0, the “Visual measurement: Crops, Wheat” value (Wheat; [9]) was 0 and the “Visual measurement: Crops, Wheat” value (Wheat; [10]) was 0. For the same compound, the “Visual measurement: Crops, Wheat” value (Wheat; [11]) was 0, the “Visual measurement: Crops, Wheat” value (Wheat; [12]) was 0 and the “Phytotoxic effect to crops (in words)” value [1] was “completely safe without any phytotoxic effect”. The “Visual measurement: Crops, Cotton” value (Cotton; [3]) was 0, the “Visual measurement: Crops, Cotton” value (Cotton; [4]) was 0 and the “Visual measurement: Crops, Cotton” value (Cotton; [5]) was 0. For the same compound, the “Visual measurement: Crops, Cotton” value (Cotton; [6]) was 0, the “Visual measurement: Crops, Cotton” value (Cotton; [7]) was 0 and the “Safety to cotton (in words)” value (Cotton; post-emergence treatment) was “safe”. For the same compound, the “Visual measurement: Crops, Cotton” value (Cotton; [8]) was 0, the “Visual measurement: Crops, Cotton” value (Cotton; [9]) was 0 and the “Visual measurement: Crops, Cotton” value (Cotton; [10]) was 0. For the same compound, the “Visual measurement: Crops, Cotton” value (Cotton; [11]) was 0, the “Visual measurement: Crops, Cotton” value (Cotton; [12]) was 0 and the “Control of broadleaf weeds (in words)” value ([2]; post-emergence application, 500 g/ha) was “well controlled”. For the same compound, the “Control of broad-leaf weeds (in words)” value ([2]; post-emergence treatment at three-leaf stage, FIG. 2) was “somewhat controlled showing a mild suppression effect”, the “Effect on broadleaf weeds (in words)” value ([2]; pre-emergence treatment, FIG. 1) was “almost no effect; also recorded: not affected” and the “Visual measurement: Gramineous weed, Fall panicum” value (“Visual measurement … Fall panicum” below) (Fall panicum; [3]) was 0. The “Visual measurement … Fall panicum” value (Fall panicum; [4]) was 1, the “Visual measurement … Fall panicum” value (Fall panicum; [5]) was 3 and the “Visual measurement … Fall panicum” value (Fall panicum; [6]) was 6. For the same compound, the “Visual measurement … Fall panicum” value (Fall panicum; [7]) was 8, the “Visual measurement … Fall panicum” value (Fall panicum; [8]) was 5 and the “Visual measurement … Fall panicum” value (Fall panicum; [9]) was 8. The “Visual measurement … Fall panicum” value (Fall panicum; [10]) was 9, the “Visual measurement … Fall panicum” value (Fall panicum; [11]) was 9 and the “Visual measurement … Fall panicum” value (Fall panicum; [12]) was 10. The “Visual measurement: Crops, Soybean” value (Soybean; [3]) was 0, the “Visual measurement: Crops, Soybean” value (Soybean; [4]) was 0 and the “Visual measurement: Crops, Soybean” value (Soybean; [5]) was 0. The “Visual measurement: Crops, Soybean” value (Soybean; [6]) was 2, the “Visual measurement: Crops, Soybean” value (Soybean; [7]) was 6 and the “Safety to soybean (in words)” value (Soybean; post-emergence treatment) was “not safe”. For the same compound, the “Visual measurement: Crops, Soybean” value (Soybean; [8]) was 0, the “Visual measurement: Crops, Soybean” value (Soybean; [9]) was 0 and the “Visual measurement: Crops, Soybean” value (Soybean; [10]) was 0. The “Visual measurement: Crops, Soybean” value (Soybean; [11]) was 0, the “Visual measurement: Crops, Soybean” value (Soybean; [12]) was 0 and the “Visual measurement: Crops, Corn” value (Corn; [3]) was 0. The “Visual measurement: Crops, Corn” value (Corn; [4]) was 2, the “Visual measurement: Crops, Corn” value (Corn; [5]) was 2 and the “Visual measurement: Crops, Corn” value (Corn; [6]) was 3. The “Visual measurement: Crops, Corn” value (Corn; [7]) was 8, the “Safety to corn (in words)” value (Corn; post-emergence treatment) was “not safe” and the “Visual measurement: Crops, Corn” value (Corn; [8]) was 0. For the same compound, the “Visual measurement: Crops, Corn” value (Corn; [9]) was 0, the “Visual measurement: Crops, Corn” value (Corn; [10]) was 0 and the “Visual measurement: Crops, Corn” value (Corn; [11]) was 0. For the same compound, the “Visual measurement: Crops, Corn” value (Corn; [12]) was 0, the “Visual measurement: Gramineous weed, Foxtail” value (from here on “Visual measurement … Foxtail”) (Foxtail; [3]) was 0 and the “Visual measurement … Foxtail” value (Foxtail; [4]) was 1. For the same compound, the “Visual measurement … Foxtail” value (Foxtail; [5]) was 2, the “Visual measurement … Foxtail” value (Foxtail; [6]) was 5 and the “Visual measurement … Foxtail” value (Foxtail; [7]) was 9. For the same compound, the “Visual measurement … Foxtail” value (Foxtail; [8]) was 1, the “Visual measurement … Foxtail” value (Foxtail; [9]) was 3 and the “Visual measurement … Foxtail” value (Foxtail; [10]) was 9. The “Visual measurement … Foxtail” value (Foxtail; [11]) was 9, the “Visual measurement … Foxtail” value (Foxtail; [12]) was 10 and the “Visual measurement: Gramineous weed, Barnyardgrass” value (from here on “Visual measurement … Barnyardgrass”) (Barnyardgrass; [3]) was 0. The “Visual measurement … Barnyardgrass” value (Barnyardgrass; [4]) was 2, the “Visual measurement … Barnyardgrass” value (Barnyardgrass; [5]) was 3 and the “Visual measurement … Barnyardgrass” value (Barnyardgrass; [6]) was 7. The “Visual measurement … Barnyardgrass” value (Barnyardgrass; [7]) was 9, the “Visual measurement … Barnyardgrass” value (Barnyardgrass; [8]) was 2 and the “Visual measurement … Barnyardgrass” value (Barnyardgrass; [9]) was 4. For the same compound, the “Visual measurement … Barnyardgrass” value (Barnyardgrass; [10]) was 10, the “Visual measurement … Barnyardgrass” value (Barnyardgrass; [11]) was 10 and the “Visual measurement … Barnyardgrass” value (Barnyardgrass; [12]) was 10. For the same compound, the “Visual measurement: Crops, Rice” value (Rice; [3]) was 0, the “Visual measurement: Crops, Rice” value (Rice; [4]) was 0 and the “Visual measurement: Crops, Rice” value (Rice; [5]) was 0. For the same compound, the “Visual measurement: Crops, Rice” value (Rice; [6]) was 0, the “Visual measurement: Crops, Rice” value (Rice; [7]) was 0 and the “Safety to rice (in words)” value (Rice; post-emergence treatment) was “safe”. The “Visual measurement: Crops, Rice” value (Rice; [8]) was 0, the “Visual measurement: Crops, Rice” value (Rice; [9]) was 0 and the “Visual measurement: Crops, Rice” value (Rice; [10]) was 0. The “Visual measurement: Crops, Rice” value (Rice; [11]) was 0, the “Visual measurement: Crops, Rice” value (Rice; [12]) was 0 and the “Visual measurement: Broadleaf weed, Indian joint-vetch” value (“Visual measurement: Broadleaf weed” below) (Indian joint-vetch; [3]) was 0. For the same compound, the “Visual measurement: Broadleaf weed” value (Indian joint-vetch; [4]) was 1, the “Visual measurement: Broadleaf weed” value (Indian joint-vetch; [5]) was 2 and the “Visual measurement: Broadleaf weed” value (Indian joint-vetch; [6]) was 3. The “Visual measurement: Broadleaf weed” value (Indian joint-vetch; [7]) was 4, the “Visual measurement: Broadleaf weed” value (Indian joint-vetch; [8]) was 0 and the “Visual measurement: Broadleaf weed” value (Indian joint-vetch; [9]) was 0. For the same compound, the “Visual measurement: Broadleaf weed” value (Indian joint-vetch; [10]) was 0, the “Visual measurement: Broadleaf weed” value (Indian joint-vetch; [11]) was 0 and the “Visual measurement: Broadleaf weed” value (Indian joint-vetch; [12]) was 0. The “Suppression ratio relative to the biomass of the untreated group: Large crabgrass 1 leaf” value (Large crabgrass) was 95%, the “Suppression ratio relative to the biomass of the untreated group: Large crabgrass 3 leaf” value (Large crabgrass) was 23% and the “Suppression ratio relative to the biomass of the untreated group: Large crabgrass PRE” value (Large crabgrass) was 84%.
